Results taken from patent publication US10160747B2, “Compounds and methods for kinase modulation, and indications therefor” (Plexxikon Inc., priority 2016, dated 2018).
pIC50: −log10 of the molar value.

Columns and labels:
Format in all cases: biochemical
[1] = target: T1, FLT3-ITD (Homo sapiens, UniProt P36888); assay: FLT3-ITD recombinant enzyme kinase assay (AlphaScreen); conditions: 8 pt; read-out: FLT3_ITD 8 pt: IC50
T1 sequence (P36888 1-993): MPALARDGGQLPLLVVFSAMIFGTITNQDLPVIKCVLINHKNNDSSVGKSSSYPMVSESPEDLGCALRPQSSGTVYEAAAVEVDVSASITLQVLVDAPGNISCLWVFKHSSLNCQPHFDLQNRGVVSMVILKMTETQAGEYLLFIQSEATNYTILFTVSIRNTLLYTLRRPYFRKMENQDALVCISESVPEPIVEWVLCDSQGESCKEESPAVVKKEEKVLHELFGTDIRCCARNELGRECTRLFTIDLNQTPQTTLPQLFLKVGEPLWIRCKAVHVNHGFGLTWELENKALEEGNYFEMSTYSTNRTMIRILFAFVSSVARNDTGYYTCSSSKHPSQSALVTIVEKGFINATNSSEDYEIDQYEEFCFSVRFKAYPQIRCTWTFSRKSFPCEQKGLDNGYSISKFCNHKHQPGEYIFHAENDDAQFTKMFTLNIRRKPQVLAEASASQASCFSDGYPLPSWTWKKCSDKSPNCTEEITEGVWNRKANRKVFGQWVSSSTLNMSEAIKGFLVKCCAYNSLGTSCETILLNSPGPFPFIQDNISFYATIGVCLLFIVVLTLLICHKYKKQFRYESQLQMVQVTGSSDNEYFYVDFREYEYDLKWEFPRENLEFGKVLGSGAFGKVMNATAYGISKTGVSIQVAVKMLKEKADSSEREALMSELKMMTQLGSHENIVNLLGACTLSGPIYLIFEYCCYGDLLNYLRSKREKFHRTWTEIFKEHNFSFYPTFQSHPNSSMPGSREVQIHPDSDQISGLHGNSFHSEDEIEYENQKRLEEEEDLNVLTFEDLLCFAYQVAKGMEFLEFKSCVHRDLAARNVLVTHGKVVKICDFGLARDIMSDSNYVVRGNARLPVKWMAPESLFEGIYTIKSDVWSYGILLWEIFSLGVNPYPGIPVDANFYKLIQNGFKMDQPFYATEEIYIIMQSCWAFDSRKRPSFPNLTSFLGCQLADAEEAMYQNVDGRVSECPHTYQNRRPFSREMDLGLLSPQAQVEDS
Procedure, shortened: (§1)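 AlphaScreen proximity signal at 580 nm, from PY20 acceptor and streptavidin donor beads, measures tyrosine phosphorylation of 30 nM biotin-poly(Glu4-Tyr) peptide by recombinant kinase. ATP: 10 μM (FLT3 mutants), 100 μM (c-KIT). IC50 from loss of signal.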

[2] = target: T2, c-KIT (Homo sapiens, UniProt P10721); assay: c-KIT recombinant enzyme kinase assay (AlphaScreen); conditions: 100 ATP, 8 pt
T2 construct: purchased Millipore 14-559K
Procedure, shortened: as §1

[3] = target: CSF1R (Homo sapiens, UniProt P07333); assay: CSF1R 100 ATP 8 pt kinase assay (Table 6)
Excerpt: The following Table 6 provides data indicating FLT3 ITD, D835Y and F691L; c-KIT and CSF1R biochemical and/or cell inhibitory activity for exemplary compounds as described herein.

T2 sequence (P10721 26-976): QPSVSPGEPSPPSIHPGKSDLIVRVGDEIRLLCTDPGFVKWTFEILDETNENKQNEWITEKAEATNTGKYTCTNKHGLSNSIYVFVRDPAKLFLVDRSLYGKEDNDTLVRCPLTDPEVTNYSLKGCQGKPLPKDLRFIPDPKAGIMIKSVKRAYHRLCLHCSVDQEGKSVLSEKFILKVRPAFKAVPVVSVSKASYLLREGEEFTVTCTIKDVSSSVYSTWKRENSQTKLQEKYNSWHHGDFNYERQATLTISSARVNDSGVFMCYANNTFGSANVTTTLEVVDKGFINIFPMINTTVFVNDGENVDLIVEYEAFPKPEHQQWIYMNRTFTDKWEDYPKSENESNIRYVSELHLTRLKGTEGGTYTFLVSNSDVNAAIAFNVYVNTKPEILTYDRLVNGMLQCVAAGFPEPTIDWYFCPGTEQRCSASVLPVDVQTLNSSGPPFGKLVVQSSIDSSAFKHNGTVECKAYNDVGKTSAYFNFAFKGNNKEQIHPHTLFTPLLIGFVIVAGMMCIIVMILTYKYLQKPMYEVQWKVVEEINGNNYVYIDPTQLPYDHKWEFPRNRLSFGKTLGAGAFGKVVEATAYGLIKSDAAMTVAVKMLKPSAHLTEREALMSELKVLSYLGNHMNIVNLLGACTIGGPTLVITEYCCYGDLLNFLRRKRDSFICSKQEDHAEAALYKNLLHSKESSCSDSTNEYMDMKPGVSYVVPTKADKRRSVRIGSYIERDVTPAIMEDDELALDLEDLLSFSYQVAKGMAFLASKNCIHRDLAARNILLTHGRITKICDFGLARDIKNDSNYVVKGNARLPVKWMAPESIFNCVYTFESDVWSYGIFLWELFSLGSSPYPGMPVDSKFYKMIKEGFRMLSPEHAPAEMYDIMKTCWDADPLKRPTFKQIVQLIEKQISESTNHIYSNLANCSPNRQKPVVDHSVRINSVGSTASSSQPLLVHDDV
CSF1R, sequence (P07333 20-972, species assumed): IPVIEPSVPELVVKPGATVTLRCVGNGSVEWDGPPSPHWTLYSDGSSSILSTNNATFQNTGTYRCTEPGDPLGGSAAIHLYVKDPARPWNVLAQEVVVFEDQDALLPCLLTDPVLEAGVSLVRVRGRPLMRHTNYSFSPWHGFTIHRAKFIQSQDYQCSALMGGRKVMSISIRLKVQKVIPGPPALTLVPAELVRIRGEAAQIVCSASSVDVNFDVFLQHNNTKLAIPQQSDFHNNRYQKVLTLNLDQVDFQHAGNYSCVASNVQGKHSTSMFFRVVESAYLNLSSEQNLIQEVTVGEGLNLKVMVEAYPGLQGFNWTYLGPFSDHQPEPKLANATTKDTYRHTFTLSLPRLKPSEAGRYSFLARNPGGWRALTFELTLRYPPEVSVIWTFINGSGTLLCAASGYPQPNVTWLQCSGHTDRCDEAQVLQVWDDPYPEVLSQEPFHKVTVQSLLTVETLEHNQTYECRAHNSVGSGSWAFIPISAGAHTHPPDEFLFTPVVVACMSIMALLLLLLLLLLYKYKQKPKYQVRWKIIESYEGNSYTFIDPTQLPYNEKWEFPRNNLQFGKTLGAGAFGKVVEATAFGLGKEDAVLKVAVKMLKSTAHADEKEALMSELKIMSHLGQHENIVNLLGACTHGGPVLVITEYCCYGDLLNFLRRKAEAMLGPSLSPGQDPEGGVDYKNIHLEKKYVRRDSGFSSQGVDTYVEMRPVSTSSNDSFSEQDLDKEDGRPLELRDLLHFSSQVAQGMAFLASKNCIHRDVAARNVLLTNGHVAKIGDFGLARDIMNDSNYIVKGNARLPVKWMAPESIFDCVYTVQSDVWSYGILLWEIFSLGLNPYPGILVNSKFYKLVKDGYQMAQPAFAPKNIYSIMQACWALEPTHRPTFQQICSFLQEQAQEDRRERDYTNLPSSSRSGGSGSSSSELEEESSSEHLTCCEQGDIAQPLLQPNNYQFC

| Structure (SMILES) | pIC50 [1] | pIC50 [2] | pIC50 [3] |
| --- | --- | --- | --- |
| Cc1n[nH]c2ncc(-c3ccc(CC(=O)Nc4cncc(C(F)(F)F)c4)cc3F)cc12 [Compound P-0177, 2-[3-fluoro-4-(3-methyl-1H-pyrazolo[3,4-b]pyridin-5-yl)phenyl]-N-[5-(trifluoromethyl)-3-pyridyl]acetamide] | 5.00 to 10.00 | 5.00 to 10.00 | 5.00 to 10.00 |
| Cc1n[nH]c2ncc(-c3cc(F)c(CC(=O)Nc4cncc(C(F)(F)F)c4)cc3F)cc12 [Compound P-0173, 2-[2,5-difluoro-4-(3-methyl-1H-pyrazolo[3,4-b]pyridin-5-yl)phenyl]-N-[5-(trifluoromethyl)-3-pyridyl]acetamide] | 5.00 to 10.00 | 5.00 to 10.00 | 5.00 to 10.00 |
| COc1ncc(NC(=O)Cc2ccc(-c3cnc4[nH]nc(C)c4c3)c(F)c2)cc1C(F)(F)F [Compound P-0174, 2-[3-fluoro-4-(3-methyl-1H-pyrazolo[3,4-b]pyridin-5-yl)phenyl]-N-[6-methoxy-5-(trifluoromethyl)-3-pyridyl]acetamide] | 5.00 to 10.00 | 5.00 to 10.00 | 5.00 to 10.00 |
| Cc1ncc(NC(=O)Cc2cc(F)c(-c3cnc4[nH]nc(C)c4c3)cc2F)cc1C(F)(F)F [Compound P-0175, 2-(2,5-difluoro-4-(3-methyl-1H-pyrazolo[3,4-b]pyridin-5-yl)phenyl)-N-(6-methyl-5-(trifluoromethyl)pyridin-3-yl)acetamide] | 5.00 to 10.00 | 5.00 to 10.00 | 5.00 to 10.00 |
| Cn1cc(Nc2ncc(-c3ccc(CC(=O)Nc4ccc(C(F)(F)F)cn4)cc3)cn2)cn1 [Compound P-0109, 2-[4-[2-[(1-methylpyrazol-4-yl)amino]pyrimidin-5-yl]phenyl]-N-[5-(trifluoromethyl)-2-pyridyl]acetamide] | 5.00 to 10.00 | 5.00 to 10.00 | – |
| Cn1cc(Nc2ncc(-c3ccc(CC(=O)Nc4ccc(C(F)(F)F)nc4)c(F)c3)cn2)cn1 [Compound P-0110, 2-[2-fluoro-4-[2-[(1-methylpyrazol-4-yl)amino]pyrimidin-5-yl]phenyl]-N-[6-(trifluoromethyl)-3-pyridyl]acetamide] | 5.00 to 10.00 | 5.00 to 10.00 | – |
| Cn1cc(Nc2ncc(-c3ccc(CC(=O)Nc4cncc(C(C)(F)F)c4)cc3)cn2)cn1 [Compound P-0144, N-[5-(1,1-difluoroethyl)-3-pyridyl]-2-[4-[2-[(1-methylpyrazol-4-yl)amino]pyrimidin-5-yl]phenyl]acetamide] | 5.00 to 10.00 | 5.00 to 10.00 | – |
| Cn1cc(Nc2ncc(-c3ccc(CC(=O)Nc4cccc(S(C)(=O)=O)c4)cc3)cn2)cn1 [Compound P-0155, 2-[4-[2-[(1-methylpyrazol-4-yl)amino]pyrimidin-5-yl]phenyl]-N-(3-methylsulfonylphenyl)acetamide] | 5.00 to 10.00 | 5.00 to 10.00 | – |
| CCn1cc(Nc2ncc(-c3ccc(CC(=O)Nc4cncc(C(F)(F)F)c4)cc3)cn2)cn1 [Compound P-0166, 2-[4-[2-[(1-ethylpyrazol-4-yl)amino]pyrimidin-5-yl]phenyl]-N-[5-(trifluoromethyl)-3-pyridyl]acetamide] | 5.00 to 10.00 | 5.00 to 10.00 | – |
